Measurements: ChEMBL document CHEMBL4706712, “Discovery and antitumor activity of Benzo[d]imidazol-containing 2,4-diarylaminopyrimidine analogues as ALK inhibitors with mutation-combating effects” (Bioorg Med Chem, 2021)
pIC50: −log10 of the molar value.

Experiments:
KARPAS-299 = assay: cells; conditions: Homo sapiens, KARPAS-299, 72 h
Description: Antiproliferative activity against human KARPAS-299 cells assessed as reduction in cell growth measured after 72 hrs by MTT assay

NCI-H2228 = assay: cells; conditions: Homo sapiens, NCI-H2228, 72 h
Description: Antiproliferative activity against human NCI-H2228 cells assessed as reduction in cell growth measured after 72 hrs by MTT assay

A549 = assay: cells; conditions: Homo sapiens, A549, 72 h
Description: Antiproliferative activity against human A549 cells assessed as reduction in cell growth measured after 72 hrs by MTT assay

[1] = biological target: T1, Receptor-type tyrosine-protein kinase FLT3 (Homo sapiens, UniProt P36888); assay: Inhibition of N-terminal GST-tagged human FLT3 cytoplasmic domain (564 to 993 residues) expressed in baculovirus infected Sf21 insect cells using Srctide as substrate measured after 1 hr by mobility shift assay
T1 sequence (P36888 whole entry): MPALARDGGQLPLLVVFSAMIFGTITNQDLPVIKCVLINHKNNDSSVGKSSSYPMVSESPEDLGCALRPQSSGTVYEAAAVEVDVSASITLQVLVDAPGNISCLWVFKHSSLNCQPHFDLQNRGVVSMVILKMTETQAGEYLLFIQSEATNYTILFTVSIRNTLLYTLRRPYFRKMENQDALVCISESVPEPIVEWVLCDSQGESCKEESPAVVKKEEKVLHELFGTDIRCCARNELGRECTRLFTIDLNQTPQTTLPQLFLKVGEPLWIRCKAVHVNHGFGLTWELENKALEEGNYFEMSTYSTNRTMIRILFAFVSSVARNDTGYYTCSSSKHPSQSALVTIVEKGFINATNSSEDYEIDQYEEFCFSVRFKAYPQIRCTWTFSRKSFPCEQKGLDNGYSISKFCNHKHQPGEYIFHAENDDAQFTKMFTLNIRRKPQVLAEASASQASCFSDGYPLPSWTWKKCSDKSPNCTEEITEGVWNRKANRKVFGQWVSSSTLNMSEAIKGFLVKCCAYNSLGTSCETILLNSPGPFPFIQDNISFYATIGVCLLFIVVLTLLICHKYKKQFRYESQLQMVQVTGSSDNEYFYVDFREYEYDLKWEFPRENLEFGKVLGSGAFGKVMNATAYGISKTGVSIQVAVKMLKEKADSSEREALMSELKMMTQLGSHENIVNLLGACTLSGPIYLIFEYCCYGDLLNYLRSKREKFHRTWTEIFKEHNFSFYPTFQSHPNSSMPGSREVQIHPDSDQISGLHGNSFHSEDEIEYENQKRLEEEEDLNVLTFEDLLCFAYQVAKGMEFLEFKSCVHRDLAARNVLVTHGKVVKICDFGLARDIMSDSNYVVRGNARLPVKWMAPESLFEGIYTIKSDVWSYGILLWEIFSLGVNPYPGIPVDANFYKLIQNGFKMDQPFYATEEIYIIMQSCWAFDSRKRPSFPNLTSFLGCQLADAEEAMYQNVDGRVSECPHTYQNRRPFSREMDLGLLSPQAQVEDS

[2] = biological target: Epidermal growth factor receptor (Homo sapiens, UniProt P00533); assay: Inhibition of N-terminal GST-tagged human EGFR cytoplasmic domain (669 to 1210 residues) expressed in baculovirus infected Sf21 insect cells using Srctide as substrate measured after 1 hr by mobility shift assay
Sequence of Epidermal growth factor receptor (P00533 whole entry, the tested form may be a part): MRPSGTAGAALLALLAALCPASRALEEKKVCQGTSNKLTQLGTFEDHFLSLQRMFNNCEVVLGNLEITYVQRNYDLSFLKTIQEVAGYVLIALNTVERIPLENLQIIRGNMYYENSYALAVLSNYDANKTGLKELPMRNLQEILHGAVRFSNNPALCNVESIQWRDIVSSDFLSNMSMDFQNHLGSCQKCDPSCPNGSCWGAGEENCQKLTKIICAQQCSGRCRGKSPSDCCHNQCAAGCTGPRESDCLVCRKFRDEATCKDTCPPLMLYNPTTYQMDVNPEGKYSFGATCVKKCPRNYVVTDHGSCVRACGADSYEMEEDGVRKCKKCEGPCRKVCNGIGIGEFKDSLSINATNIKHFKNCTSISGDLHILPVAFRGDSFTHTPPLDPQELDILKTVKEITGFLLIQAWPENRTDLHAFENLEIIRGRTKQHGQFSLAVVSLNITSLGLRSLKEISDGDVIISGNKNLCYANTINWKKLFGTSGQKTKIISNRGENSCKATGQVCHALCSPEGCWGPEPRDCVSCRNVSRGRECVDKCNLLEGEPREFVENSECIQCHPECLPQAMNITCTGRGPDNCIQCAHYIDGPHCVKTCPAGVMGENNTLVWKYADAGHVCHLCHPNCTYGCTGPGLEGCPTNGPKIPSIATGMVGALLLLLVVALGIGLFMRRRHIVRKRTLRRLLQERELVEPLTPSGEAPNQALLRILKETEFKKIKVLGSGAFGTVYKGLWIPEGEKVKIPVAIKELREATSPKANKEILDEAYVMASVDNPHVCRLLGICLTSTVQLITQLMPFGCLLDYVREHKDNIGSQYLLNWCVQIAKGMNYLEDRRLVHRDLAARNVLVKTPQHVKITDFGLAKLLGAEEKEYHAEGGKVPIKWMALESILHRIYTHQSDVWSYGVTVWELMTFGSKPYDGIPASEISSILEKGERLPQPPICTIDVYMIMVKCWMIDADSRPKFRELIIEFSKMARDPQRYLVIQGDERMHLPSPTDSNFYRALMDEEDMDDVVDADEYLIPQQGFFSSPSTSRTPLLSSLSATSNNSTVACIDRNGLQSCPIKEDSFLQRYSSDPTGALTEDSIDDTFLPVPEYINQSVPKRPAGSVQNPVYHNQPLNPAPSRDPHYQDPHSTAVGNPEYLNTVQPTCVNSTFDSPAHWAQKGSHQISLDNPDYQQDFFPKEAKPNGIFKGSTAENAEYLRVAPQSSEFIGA

[3] = biological target: ALK tyrosine kinase receptor (Homo sapiens, UniProt Q9UM73, L1196M); assay: Inhibition of human N-terminal GST-fused ALK L1196M mutant cytoplasmic domain (1058 to 1620 residues) expressed in baculovirus infected Sf21 insect cells using Srctide as substrate measured after 1 hr by mobility shift assay
[4] = biological target: ALK tyrosine kinase receptor (Homo sapiens, UniProt Q9UM73); assay: Inhibition of human N-terminal GST-fused ALK cytoplasmic domain (1058 to 1620 residues) expressed in baculovirus infected Sf21 insect cells using Srctide as substrate measured after 1 hr by mobility shift assay
Sequence of ALK tyrosine kinase receptor (Homo sapiens, UniProt Q9UM73) (Q9UM73 whole entry, the tested form may be a part): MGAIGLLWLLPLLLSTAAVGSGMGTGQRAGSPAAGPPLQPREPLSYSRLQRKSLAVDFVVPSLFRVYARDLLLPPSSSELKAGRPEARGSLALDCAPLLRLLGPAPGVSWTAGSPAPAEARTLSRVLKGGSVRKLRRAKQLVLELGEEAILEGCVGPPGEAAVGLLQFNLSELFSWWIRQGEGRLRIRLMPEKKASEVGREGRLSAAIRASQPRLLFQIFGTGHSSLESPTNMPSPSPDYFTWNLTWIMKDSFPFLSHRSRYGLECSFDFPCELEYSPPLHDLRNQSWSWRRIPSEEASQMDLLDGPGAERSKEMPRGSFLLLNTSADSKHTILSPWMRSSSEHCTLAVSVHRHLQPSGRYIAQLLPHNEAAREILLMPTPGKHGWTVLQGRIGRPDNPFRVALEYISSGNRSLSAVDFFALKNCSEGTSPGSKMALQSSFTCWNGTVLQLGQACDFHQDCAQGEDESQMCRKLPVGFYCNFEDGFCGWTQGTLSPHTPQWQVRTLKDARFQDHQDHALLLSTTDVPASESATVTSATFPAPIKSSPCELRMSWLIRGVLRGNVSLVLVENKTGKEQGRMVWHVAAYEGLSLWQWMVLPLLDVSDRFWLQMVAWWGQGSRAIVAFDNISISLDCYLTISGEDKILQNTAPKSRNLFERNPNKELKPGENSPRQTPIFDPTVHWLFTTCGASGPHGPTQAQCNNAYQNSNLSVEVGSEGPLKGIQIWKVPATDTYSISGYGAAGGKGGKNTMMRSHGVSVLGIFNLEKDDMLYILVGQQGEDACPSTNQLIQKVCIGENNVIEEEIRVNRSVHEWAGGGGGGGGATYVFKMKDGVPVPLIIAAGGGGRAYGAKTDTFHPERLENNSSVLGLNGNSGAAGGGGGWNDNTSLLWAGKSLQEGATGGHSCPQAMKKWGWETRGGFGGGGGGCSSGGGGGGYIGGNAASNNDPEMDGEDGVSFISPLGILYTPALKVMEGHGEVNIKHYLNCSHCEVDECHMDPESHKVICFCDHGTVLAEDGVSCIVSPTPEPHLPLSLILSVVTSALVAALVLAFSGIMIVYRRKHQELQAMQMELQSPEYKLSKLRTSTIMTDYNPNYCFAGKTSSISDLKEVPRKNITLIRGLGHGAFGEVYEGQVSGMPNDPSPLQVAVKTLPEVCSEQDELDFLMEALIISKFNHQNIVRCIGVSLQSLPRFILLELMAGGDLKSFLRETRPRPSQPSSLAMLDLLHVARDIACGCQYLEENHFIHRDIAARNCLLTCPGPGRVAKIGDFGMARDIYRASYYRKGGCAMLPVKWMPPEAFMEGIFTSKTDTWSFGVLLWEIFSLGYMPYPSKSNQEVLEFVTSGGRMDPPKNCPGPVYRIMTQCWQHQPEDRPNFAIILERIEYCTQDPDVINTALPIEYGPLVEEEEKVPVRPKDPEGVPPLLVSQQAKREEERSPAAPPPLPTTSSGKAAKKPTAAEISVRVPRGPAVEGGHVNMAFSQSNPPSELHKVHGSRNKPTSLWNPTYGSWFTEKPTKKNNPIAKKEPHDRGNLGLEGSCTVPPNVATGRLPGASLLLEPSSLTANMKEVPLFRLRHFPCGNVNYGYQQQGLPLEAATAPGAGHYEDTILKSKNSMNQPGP

[5] = biological target: ALK tyrosine kinase receptor (Homo sapiens, UniProt Q9UM73, G1202R); assay: Inhibition of human N-terminal GST-fused ALK G1202R mutant cytoplasmic domain (1058 to 1620 residues) expressed in baculovirus infected Sf21 insect cells using Srctide as substrate measured after 1 hr by mobility shift assay
Sequence of ALK tyrosine kinase receptor (Homo sapiens, UniProt Q9UM73, G1202R) (Q9UM73 19-1620 G1202R limits assumed): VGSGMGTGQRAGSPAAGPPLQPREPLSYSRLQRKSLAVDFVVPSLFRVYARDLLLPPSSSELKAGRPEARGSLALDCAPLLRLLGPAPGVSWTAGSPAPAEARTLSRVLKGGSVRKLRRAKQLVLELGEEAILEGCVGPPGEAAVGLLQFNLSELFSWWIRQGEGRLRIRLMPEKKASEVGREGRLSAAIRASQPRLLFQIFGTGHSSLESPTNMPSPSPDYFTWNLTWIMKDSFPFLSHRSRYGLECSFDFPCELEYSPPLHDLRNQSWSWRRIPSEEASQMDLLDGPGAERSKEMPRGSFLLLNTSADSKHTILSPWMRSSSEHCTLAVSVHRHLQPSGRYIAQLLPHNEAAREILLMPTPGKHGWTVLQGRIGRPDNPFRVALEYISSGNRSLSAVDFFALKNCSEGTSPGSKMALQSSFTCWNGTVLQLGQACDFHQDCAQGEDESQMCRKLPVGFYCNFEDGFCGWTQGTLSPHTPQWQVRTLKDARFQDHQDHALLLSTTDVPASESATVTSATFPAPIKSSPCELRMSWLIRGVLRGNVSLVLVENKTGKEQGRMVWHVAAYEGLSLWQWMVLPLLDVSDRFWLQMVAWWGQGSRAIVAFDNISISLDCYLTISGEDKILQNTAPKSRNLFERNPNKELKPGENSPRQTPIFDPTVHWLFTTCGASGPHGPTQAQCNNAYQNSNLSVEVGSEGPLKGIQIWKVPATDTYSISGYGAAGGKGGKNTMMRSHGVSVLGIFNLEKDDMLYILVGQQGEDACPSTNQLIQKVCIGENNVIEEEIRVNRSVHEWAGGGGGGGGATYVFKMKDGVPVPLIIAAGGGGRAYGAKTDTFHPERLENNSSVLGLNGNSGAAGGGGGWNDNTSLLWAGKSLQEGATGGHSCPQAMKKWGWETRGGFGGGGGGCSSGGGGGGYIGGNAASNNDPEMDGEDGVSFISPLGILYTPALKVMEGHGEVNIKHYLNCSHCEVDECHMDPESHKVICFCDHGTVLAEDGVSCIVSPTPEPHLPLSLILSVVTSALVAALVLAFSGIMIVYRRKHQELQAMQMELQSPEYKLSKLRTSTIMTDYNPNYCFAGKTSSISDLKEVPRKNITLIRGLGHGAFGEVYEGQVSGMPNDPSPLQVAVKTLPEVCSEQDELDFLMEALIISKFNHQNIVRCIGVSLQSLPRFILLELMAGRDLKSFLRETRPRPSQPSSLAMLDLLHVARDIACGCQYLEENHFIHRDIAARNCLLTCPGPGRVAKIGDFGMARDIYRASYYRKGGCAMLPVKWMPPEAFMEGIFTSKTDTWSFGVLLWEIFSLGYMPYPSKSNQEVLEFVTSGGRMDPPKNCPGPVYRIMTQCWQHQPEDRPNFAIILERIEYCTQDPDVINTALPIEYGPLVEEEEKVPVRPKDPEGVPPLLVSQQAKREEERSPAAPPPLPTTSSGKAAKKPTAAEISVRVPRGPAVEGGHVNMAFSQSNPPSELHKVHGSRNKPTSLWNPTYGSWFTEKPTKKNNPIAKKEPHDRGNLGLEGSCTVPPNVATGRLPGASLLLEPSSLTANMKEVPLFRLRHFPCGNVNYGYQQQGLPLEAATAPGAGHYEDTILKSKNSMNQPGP

| SMILES | pIC50 (KARPAS-299) | pIC50 (NCI-H2228) | pIC50 (A549) | pIC50 [1] | pIC50 [2] | pIC50 [3] | pIC50 [4] | pIC50 [5] |
| --- | --- | --- | --- | --- | --- | --- | --- | --- |
| CN(C)C(=O)c1ccccc1Nc1nc(Nc2ccc3nc(CN4CCCCC4)[nH]c3c2)ncc1Cl | 7.24 | 6.47 | 5.73 |  |  |  |  |  |
| CC(=O)Nc1ccccc1Nc1nc(Nc2ccc3nc(CN4CCN(CCO)CC4)[nH]c3c2)ncc1Cl | 5.87 | 5.63 | < 5.00 |  |  |  |  |  |
| CS(=O)(=O)Nc1ccccc1Nc1nc(Nc2ccc3nc(CN4CCCC4)[nH]c3c2)ncc1Cl | 7.21 | 6.46 | 5.73 |  |  |  |  |  |
| CS(=O)(=O)Nc1ccccc1Nc1nc(Nc2ccc3nc(CN4CCCCC4)[nH]c3c2)ncc1Cl | 7.17 | 6.37 | 5.22 | 6.73 | < 6.00 | 8.08 | 8.28 | 8.15 |
| CN(C)C(=O)c1ccccc1Nc1nc(Nc2ccc3nc(CN4CCN(CCO)CC4)[nH]c3c2)ncc1Cl | 6.60 | 5.89 | < 5.00 |  |  |  |  |  |
| CCN(CC)Cc1nc2ccc(Nc3ncc(Cl)c(Nc4ccccc4NS(C)(=O)=O)n3)cc2[nH]1 | 7.10 | 5.91 | < 5.00 |  |  |  |  |  |
| CN(C)C(=O)c1ccccc1Nc1nc(Nc2ccc3nc(CN4CCCC4)[nH]c3c2)ncc1Cl | 7.27 | 6.54 | < 5.00 | 6.99 | < 6.00 | 8.28 | 8.47 | 7.88 |
| CN(C)Cc1nc2ccc(Nc3ncc(Cl)c(Nc4ccccc4NS(C)(=O)=O)n3)cc2[nH]1 | 7.25 | 6.49 | 5.52 | < 6.70 | < 6.00 | 8.43 | 8.40 | 8.09 |
| CN(C)Cc1nc2ccc(Nc3ncc(Cl)c(Nc4ccccc4C(=O)N(C)C)n3)cc2[nH]1 | 7.33 | 6.90 | < 5.00 | < 6.70 | < 6.00 | 8.42 | 8.49 | 8.16 |
| CS(=O)(=O)Nc1ccccc1Nc1nc(Nc2ccc3nc(CN4CCSCC4)[nH]c3c2)ncc1Cl | 5.74 | 5.49 | < 5.00 |  |  |  |  |  |
| CN(C)C(=O)c1ccccc1Nc1nc(Nc2ccc3nc(CN4CCSCC4)[nH]c3c2)ncc1Cl | 5.89 | 5.63 | 5.13 |  |  |  |  |  |
| CS(=O)(=O)Nc1ccccc1Nc1nc(Nc2ccc3nc(CN4CCN(CCO)CC4)[nH]c3c2)ncc1Cl | 5.99 | 5.76 | < 5.00 |  |  |  |  |  |
| CS(=O)(=O)Nc1ccccc1Nc1nc(Nc2ccc3nc(CN4CCOCC4)[nH]c3c2)ncc1Cl | 6.10 | 5.97 | < 5.00 |  |  |  |  |  |
| CN1CCN(Cc2nc3ccc(Nc4ncc(Cl)c(Nc5ccccc5NS(C)(=O)=O)n4)cc3[nH]2)CC1 |  |  |  | 6.87 |  | 8.31 | 8.44 | 8.15 |
| CNC(=O)c1ccccc1Nc1nc(Nc2ccc3nc(CN4CCC(C)CC4)[nH]c3c2)ncc1Cl | 7.11 | 6.20 | < 5.00 |  |  |  |  |  |
| CC(=O)Nc1ccccc1Nc1nc(Nc2ccc3nc(CN(C)C)[nH]c3c2)ncc1Cl | 7.10 | 6.29 | < 5.00 |  |  |  |  |  |
| CCN1CCN(Cc2nc3ccc(Nc4ncc(Cl)c(Nc5ccccc5NS(C)(=O)=O)n4)cc3[nH]2)CC1 | 6.36 | 5.99 | < 5.00 |  |  |  |  |  |
| CC(=O)Nc1ccccc1Nc1nc(Nc2ccc3nc(CN4CCN(C)CC4)[nH]c3c2)ncc1Cl | 6.97 | 6.64 | < 5.00 |  |  |  |  |  |
| CC(=O)Nc1ccccc1Nc1nc(Nc2ccc3nc(CN4CCC(C)CC4)[nH]c3c2)ncc1Cl | 6.71 | 6.01 | 5.22 |  |  |  |  |  |
| CCN(CC)Cc1nc2ccc(Nc3ncc(Cl)c(Nc4ccccc4C(=O)N(C)C)n3)cc2[nH]1 | 5.91 | 5.84 | 5.53 |  |  |  |  |  |
| CC1CCN(Cc2nc3ccc(Nc4ncc(Cl)c(Nc5ccccc5NS(C)(=O)=O)n4)cc3[nH]2)CC1 | 6.87 | 6.11 | < 5.00 |  |  |  |  |  |
| CNC(=O)c1ccccc1Nc1nc(Nc2ccc3nc(CN4CCN(CCO)CC4)[nH]c3c2)ncc1Cl | 6.41 | 5.88 | < 5.00 |  |  |  |  |  |
| CN1CCN(Cc2nc3ccc(Nc4ncc(Cl)c(Nc5ccccc5C(=O)N(C)C)n4)cc3[nH]2)CC1 |  |  |  | < 6.70 |  | 8.42 | 8.57 | 8.24 |
| CNC(=O)c1ccccc1Nc1nc(Nc2ccc3nc(CN(C)C)[nH]c3c2)ncc1Cl | 7.21 | 6.47 | 5.32 |  |  |  |  |  |
| CCN1CCN(Cc2nc3ccc(Nc4ncc(Cl)c(Nc5ccccc5C(=O)N(C)C)n4)cc3[nH]2)CC1 | 6.69 | 6.23 | < 5.00 |  |  |  |  |  |
| CC(C)N(Cc1nc2ccc(Nc3ncc(Cl)c(Nc4ccccc4NS(C)(=O)=O)n3)cc2[nH]1)C(C)C | 5.70 | 5.42 | 5.27 |  |  |  |  |  |
| CS(=O)(=O)Nc1ccccc1Nc1nc(Nc2ccc3nc(CN4CCC(O)CC4)[nH]c3c2)ncc1Cl | 5.89 | 5.89 | < 5.00 |  |  |  |  |  |
| CN(C)C(=O)c1ccccc1Nc1nc(Nc2ccc3nc(CN4CCOCC4)[nH]c3c2)ncc1Cl | 6.08 | 5.90 | < 5.00 |  |  |  |  |  |
| Cc1cc(Nc2ncc(Cl)c(Nc3ccccc3S(=O)(=O)C(C)C)n2)c(OC(C)C)cc1C1CCNCC1 [CERITINIB] | 7.51 | 6.97 |  | 7.06 |  |  |  |  |
